Measured values as given in ChEMBL document CHEMBL5247652, “Discovery of Novel Substrate-Competitive Lysine Methyltransferase G9a Inhibitors as Anticancer Agents” (J Med Chem, 2023).
≈ marks a conversion by molar mass, not a printed value.

Key:
[1] = target: T1, Histone-lysine N-methyltransferase EHMT2 (Homo sapiens, UniProt Q96KQ7); assay: Inhibition of N-terminal GST-tagged human recombinant G9a (785 to 1210 residues) expressed in baculovirus infected Sf9 cells incubated for 1 hr by AlphaLISA analysis
T1 sequence (Q96KQ7 whole entry): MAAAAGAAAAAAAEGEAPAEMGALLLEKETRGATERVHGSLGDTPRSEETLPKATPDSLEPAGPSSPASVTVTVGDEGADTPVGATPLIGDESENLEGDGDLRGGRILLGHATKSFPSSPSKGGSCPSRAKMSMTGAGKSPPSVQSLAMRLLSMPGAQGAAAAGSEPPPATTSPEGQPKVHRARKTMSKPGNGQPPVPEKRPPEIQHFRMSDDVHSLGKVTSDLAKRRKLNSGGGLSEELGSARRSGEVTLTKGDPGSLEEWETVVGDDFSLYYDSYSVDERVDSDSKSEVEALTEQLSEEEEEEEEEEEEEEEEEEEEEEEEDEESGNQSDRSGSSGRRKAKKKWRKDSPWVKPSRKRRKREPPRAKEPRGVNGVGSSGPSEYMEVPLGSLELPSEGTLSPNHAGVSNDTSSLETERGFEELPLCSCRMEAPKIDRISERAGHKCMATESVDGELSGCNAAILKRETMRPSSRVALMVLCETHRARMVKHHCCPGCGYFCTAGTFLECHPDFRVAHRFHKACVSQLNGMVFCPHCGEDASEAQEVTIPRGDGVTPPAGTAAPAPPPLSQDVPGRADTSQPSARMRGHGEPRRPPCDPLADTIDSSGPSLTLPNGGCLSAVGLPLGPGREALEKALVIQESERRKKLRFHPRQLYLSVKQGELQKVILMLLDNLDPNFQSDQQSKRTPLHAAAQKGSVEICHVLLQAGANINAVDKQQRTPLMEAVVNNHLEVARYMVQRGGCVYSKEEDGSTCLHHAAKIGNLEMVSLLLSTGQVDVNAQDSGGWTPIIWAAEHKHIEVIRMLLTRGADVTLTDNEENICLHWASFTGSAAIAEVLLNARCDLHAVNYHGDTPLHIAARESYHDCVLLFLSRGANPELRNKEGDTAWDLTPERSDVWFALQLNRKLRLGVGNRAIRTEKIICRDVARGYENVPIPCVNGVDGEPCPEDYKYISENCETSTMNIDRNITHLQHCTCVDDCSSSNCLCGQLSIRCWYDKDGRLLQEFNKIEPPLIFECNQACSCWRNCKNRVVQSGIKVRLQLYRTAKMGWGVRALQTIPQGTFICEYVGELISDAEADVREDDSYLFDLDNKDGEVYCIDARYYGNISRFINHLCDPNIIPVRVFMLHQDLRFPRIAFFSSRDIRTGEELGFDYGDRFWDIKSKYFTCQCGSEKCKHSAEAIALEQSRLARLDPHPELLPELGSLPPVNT

[2] = Aqueous solubility of compound at pH 7.4 measured for 1 hr by UV-plate reader analysis; assay type: physicochemical; conditions: buffer
[3] = Permeability of compound by PAMPA assay; assay type: ADME; conditions: read-out: permeability
[4] = Microsomal stability in mouse liver microsomes assessed as parent compound remaining after 30 mins in presence of NADPH by LC -MS/MS analysis; assay type: ADME, Microsome; conditions: read-out: Stability
[5] = Microsomal stability in human liver microsomes assessed as parent compound remaining after 30 mins in presence of NADPH by LC -MS/MS analysis; assay type: ADME, Microsome; conditions: read-out: Stability

IC50 [1] | solubility at 1 h [2] | Papp [3] | remaining at 0.5 h [4] | remaining at 0.5 h [5] | Structure (SMILES)
8640 nM |  |  |  |  | CCCC[C@@H](NC(=O)c1[nH]c2c(c1C)C(=O)CC(C)(C)C2)C(=O)Nc1ccccc1
2080 nM |  |  |  |  | CCCC[C@H](NC(=O)c1[nH]c2c(c1C)C(=O)CC1(CCOCC1)C2)C(=O)Nc1ccccc1
17000 nM |  |  |  |  | Cc1c(C(=O)N[C@@H](CCN(C)C)c2nc3ccccc3[nH]2)[nH]c2c1C(=O)CC(C)(C)C2
178 nM |  |  |  |  | CCCC[C@H](NC(=O)c1[nH]c2c(c1CC)C(=O)CC(C)(C)C2)C(=O)Nc1ccccc1
1900 nM |  |  |  |  | CCCC[C@H](NC(=O)c1[nH]c2c(c1C)C(=O)CC(C)(C)C2)c1nc2ccccc2[nH]1
4500 nM |  |  |  |  | CCCC[C@@H](NC(=O)c1[nH]c2c(c1C)C(=O)CC(C)(C)C2)c1nc2ccccc2[nH]1
491 nM | 1.8 µM (≈ 0.762 µg/mL) |  |  |  | CCCCC(NC(=O)c1[nH]c2c(c1C)C(=O)CC(C)(C)C2)C(=O)Nc1ccc(C)cc1 (racemic)
909 nM | 16.5 µM (≈ 7.05 µg/mL) | 23.5 ×10⁻⁶ cm/s | 37.5% | 83.8% | CCCCC(NC(=O)c1[nH]c2c(c1C)C(=O)CC(C)(C)C2)C(=O)Nc1ccc(F)cc1 (racemic)
526 nM | 104 µM (≈ 47.1 µg/mL) | 0.62 ×10⁻⁶ cm/s | 92.2% | 90.9% | CCCCC(NC(=O)c1[nH]c2c(c1C)C(=O)CC(C)(C)C2)C(=O)Nc1ccc(C(N)=O)cc1 (racemic)
1360 nM |  |  |  |  | Cc1c(C(=O)NC(CCC2(C)CC2)C(=O)Nc2ccccc2)[nH]c2c1C(=O)CC(C)(C)C2 (racemic)
5320 nM |  |  |  |  | CSCCC(NC(=O)c1[nH]c2c(c1C)C(=O)CC(C)(C)C2)c1nc2ccccc2[nH]1 (racemic)
1570 nM | 15.5 µM (≈ 6.74 µg/mL) | 7.85 ×10⁻⁶ cm/s | 5.5% | 40.8% | CCCCC(NC(=O)c1[nH]c2c(c1C)C(=O)CC(C)(C)C2)C(=O)Nc1ccccc1C#N (racemic)
1600 nM |  |  |  |  | Cc1c(C(=O)NC(COC2CC2)C(=O)Nc2ccccc2)[nH]c2c1C(=O)CC(C)(C)C2 (racemic)
> 50000 nM |  |  |  |  | CCCCC(NC(=O)c1oc2c(c1C)C(=O)CC(C)(C)C2)C(=O)Nc1ccccc1 (racemic)
> 50000 nM |  |  |  |  | CCCCC(NC(=O)c1[nH]c2c(c1C)CCC(C)(C)C2)C(=O)Nc1ccccc1 (racemic)
 |  | 19.4 ×10⁻⁶ cm/s |  |  | CC(C)NCC(O)COc1cccc2ccccc12 (centres undefined) [PROPRANOLOL]

Further lines, the molecule ahead of its results:

Structure (SMILES) | IC50 [1] | solubility at 1 h [2] | Papp [3] | remaining at 0.5 h [4] | remaining at 0.5 h [5]
CCCC[C@H](NC(=O)c1[nH]c2c(c1C(C)(C)C)C(=O)CC(C)(C)C2)C(=O)Nc1ccccc1 | > 50000 nM |  |  |  | 
CCCC[C@H](NC(=O)c1[nH]c2c(c1C(C)C)C(=O)CC(C)(C)C2)C(=O)Nc1ccccc1 | 72.4 nM |  |  |  | 
CCCC[C@H](NC(=O)c1[nH]c2c(c1C)C(=O)CC(C)(C)C2)C(=O)Nc1ccccc1 | 355 nM |  |  |  | 
CCCC[C@H](NC(=O)c1[nH]c2c(c1C)C(=O)CC1(CCCCC1)C2)C(=O)Nc1ccccc1 | 1470 nM |  |  |  | 
Cc1c(C(=O)N[C@@H](CCCN(C)C)c2nc3ccccc3[nH]2)[nH]c2c1C(=O)CC(C)(C)C2 | > 50000 nM |  |  |  | 
CSCC[C@H](NC(=O)c1[nH]c2c(c1C)C(=O)CC(C)(C)C2)c1nc2ccccc2[nH]1 | 1430 nM |  |  |  | 
CCCC[C@H](NC(=O)c1[nH]c2c(c1CCC)C(=O)CC(C)(C)C2)C(=O)Nc1ccccc1 | 306 nM |  |  |  | 
Cc1c(C(=O)NC(CCC2CCC2)C(=O)Nc2ccccc2)[nH]c2c1C(=O)CC(C)(C)C2 (racemic) | 636 nM |  |  |  | 
CCCCC(NC(=O)c1[nH]c2c(c1C)C(=O)CC(C)(C)C2)C(=O)Nc1cccc(Cl)c1 (racemic) | 1540 nM | 4.5 µM (≈ 2 µg/mL) |  |  | 
CCCCC(NC(=O)c1[nH]c2c(c1C)C(=O)CCC2)C(=O)Nc1ccccc1 (racemic) | 20900 nM |  |  |  | 
CCCCC(NC(=O)c1[nH]c2c(c1C)C(=O)CC(C)(C)C2)C(=O)Nc1ccc(C(=O)O)cc1 (racemic) | 1800 nM |  |  |  | 
CCCCC(NC(=O)c1[nH]c2c(c1C)C(=O)CC(C)(C)C2)C(=O)Nc1ccccc1Cl (racemic) | 1080 nM | 13.9 µM (≈ 6.17 µg/mL) | 7.16 ×10⁻⁶ cm/s | 0.1% | 30%
CCCCC(NC(=O)c1[nH]c2c(c1C)C(=O)CC(C)(C)C2)C(=O)Nc1cccc(C#N)c1 (racemic) | 685 nM | 14.5 µM (≈ 6.3 µg/mL) | 7.78 ×10⁻⁶ cm/s | 6.4% | 79.1%
Cc1c(C(=O)NC(CCc2ccccc2)C(=O)Nc2ccccc2)[nH]c2c1C(=O)CC(C)(C)C2 (racemic) | > 5000 nM |  |  |  | 
CCCCC(NC(=O)c1[nH]c2c(c1C)C(=O)CC(C)(C)C2)C(=O)Nc1ccccc1 (racemic) |  | 20.1 µM (≈ 8.23 µg/mL) | 12.5 ×10⁻⁶ cm/s | 19.9% | 77.8%
CCCCC(NC(=O)c1[nH]c2c(c1C)C(=O)CC(C)(C)C2)C(=O)Nc1ccc(S(C)(=O)=O)cc1 (racemic) | 2960 nM | 43.6 µM (≈ 21.3 µg/mL) | 1.39 ×10⁻⁶ cm/s |  | 

Structure (SMILES) | IC50 [1] | solubility at 1 h [2] | Papp [3] | remaining at 0.5 h [4] | remaining at 0.5 h [5]
CCCC(NC(=O)c1[nH]c2c(c1C)C(=O)CC(C)(C)C2)C(=O)Nc1ccccc1 (racemic) | 4040 nM |  |  |  | 
Cc1c(C(=O)NC(CCCCN)C(=O)Nc2ccccc2)[nH]c2c1C(=O)CC(C)(C)C2 (racemic) | 27600 nM |  |  |  | 
CCCCC(NC(=O)c1[nH]c2c(c1C)C(=O)CC(C)(C)C2)C(=O)Nc1ccc(Cl)cc1 (racemic) | 1520 nM | 5.1 µM (≈ 2.26 µg/mL) |  |  | 
CCCCC(NC(=O)c1[nH]c2c(c1C)C(=O)CC(C)(C)C2)C(=O)N(C)c1ccccc1 (racemic) | > 50000 nM | 4.9 µM (≈ 2.08 µg/mL) |  |  | 
CCCCC(NC(=O)c1[nH]c2c(c1C)C(=O)CC(C)(C)C2)C(=O)Nc1cccc(OC)c1 (racemic) | 1210 nM | 3 µM (≈ 1.32 µg/mL) |  |  | 
CCCCC(NC(=O)c1[nH]c2c(c1C)C(=O)CC(C)(C)C2)C(=O)Nc1ccccc1OC (racemic) | 802 nM | 7.2 µM (≈ 3.16 µg/mL) | 49.4 ×10⁻⁶ cm/s | 1.7% | 11.8%
CCCCC(NC(=O)c1[nH]c2c(c1C)C(=O)CC(C)(C)C2)C(=O)Nc1ccc(C#N)cc1 (racemic) | 446 nM | 12.9 µM (≈ 5.61 µg/mL) | 3.68 ×10⁻⁶ cm/s | 63.9% | 89.5%
CCCCC(NC(=O)c1[nH]c2c(c1C)C(=O)CC(C)(C)C2)C(=O)Nc1ccccn1 (racemic) | 4260 nM | 62.1 µM (≈ 25.5 µg/mL) | 11.2 ×10⁻⁶ cm/s | 25.1% | 68.8%
CCCCCC(NC(=O)c1[nH]c2c(c1C)C(=O)CC(C)(C)C2)C(=O)Nc1ccccc1 (racemic) | > 50000 nM |  |  |  | 
Cc1c(C(=O)NC(CCC(C)C)C(=O)Nc2ccccc2)[nH]c2c1C(=O)CC(C)(C)C2 (racemic) | 291 nM |  |  |  | 
Cc1c(C(=O)NC(CC2CC2)C(=O)Nc2ccccc2)[nH]c2c1C(=O)CC(C)(C)C2 (racemic) | 1160 nM |  |  |  | 
CCCCC(NC(=O)c1c(C)c2c(n1C)CC(C)(C)CC2=O)C(=O)Nc1ccccc1 (racemic) | > 50000 nM |  |  |  | 
CCCCC(NC(=O)c1[nH]c2c(c1C)C(=O)CC(C)(C)C2)C(=O)Nc1ccc(OC)cc1 (racemic) | 1810 nM | 5.9 µM (≈ 2.59 µg/mL) |  |  | 
CCCCC(NC(=O)c1[nH]c2c(c1C)C(=O)CC(C)(C)C2)C(=O)Nc1cccnc1 (racemic) | 1810 nM | 143 µM (≈ 58.7 µg/mL) | 6.95 ×10⁻⁶ cm/s | 44.7% | 32.4%
Cc1c(C(=O)NC(CCCN)C(=O)Nc2ccccc2)[nH]c2c1C(=O)CC(C)(C)C2 (racemic) | 12300 nM |  |  |  | 
